Melting point data for 91 compounds are collected here from a melting point compilation (Tetko et al.; mined from patent text by program, amines drawn as free bases though some values may be those of a salt).

Residues, ends and D or L forms follow the SMILES beside them. *: point of attachment. Tos = Cc1ccc(S(=O)(=O)*)cc1 Where only a bound is given, the exact number is not on record here.

Turning to `CC(=O)N(O)Cc1ccccc1Nc1cccc(C)c1C`, the melting point was in the range of 93 to 98 °C.
For `CC1(C(=O)O)COc2ccccc2O1` (stereo unspecified) the value was 125 to 130 °C; for `Cc1ccc(-c2noc(CC(F)=C(F)F)n2)cc1`, 46 to 50 °C.
For the compound `Cc1ccc(S(=O)(=O)N(CC(=O)N(C)C)c2ccc(Cl)cc2C(=O)c2ccccc2Cl)cc1`, the melting point is 154 to 157 °C.
For `CCN1c2ncc(CC(F)c3ccncc3)cc2C(=O)N(C)c2ccc(Cl)nc21` (stereo unspecified) the value was 180 °C; for `Cc1ccc(-c2ccc(C(=O)Nc3ccc4nc(CN(C(C)C)C(C)C)ccc4c3)cn2)cc1`, 211 to 213 °C.
Next, `O=C1NCCN1CC#CCN1CCCC1`: 71 to 75 °C.
For `O=C1NCc2c(Oc3ccccc3)cccc2N1c1ccccc1` the value was 225 to 227 °C; for `CN1C(=O)C(N)=C(C(N)=S)C1=O`, 282 °C.
The compound `O=C(O)Cc1ccc(Cl)cc1OCCc1ccccc1` showed a melting point of 102 to 104 °C.
For `CN1CC=C(c2c[nH]c3ccc(C(=O)O)cc23)CC1` the value was 249 °C; for `COC(=O)C(F)=CC1C(C(=O)OC(C#N)c2cccc(Oc3ccccc3)c2)C1(C)C` (stereo unspecified), 70 °C.
On to `NC(Cc1c(Cl)cccc1Cl)=NO`, for which the melting point fell in the range of 172 to 173 °C.
For `O=C(O)CCCc1cc2cc(C(F)(F)F)ccc2n1S(=O)(=O)c1ccc2c(c1)CCN2` the value was 175 °C.
For `CC(C)COC(=O)C(C#N)=CNCc1ccco1` the value was 85 to 87 °C; for `CC(=O)Nc1ccc(/C=C/C(=O)NCC(=O)N(C)c2ccc(C)c(CO)c2C)cn1`, 215 to 216 °C; for `Cc1sc(N2C(=O)OCC2(C)C)nc1-c1ccc(C#N)cc1`, 192 to 193 °C.
For `CCOc1ccc([N+](=O)[O-])cc1NC(C)=O` the value was 195 to 198 °C; for `Cc1cc(-c2ccc(Cl)cc2)nnc1Cl`, 230 to 233 °C; for `Cc1cc(Cl)cc(C(=O)NC2(C)CS(=O)(=O)C2)c1NC(=O)c1cc(OCC(F)(F)F)nn1-c1ncccc1Cl`, > 250 °C.
`COc1cc2nc(N3CCN(C(=O)CC(C)O)CC3)nc(N)c2cc1OC` (stereo unspecified): the melting point fell in the range of 220 to 222 °C.
Turning to `CC(C)OC(=O)C1CCCN1S(=O)(=O)c1ccc(N2CCC(NCC(O)c3ccc(O)c(NS(C)(=O)=O)c3)CC2)cc1` (stereo unspecified), the melting point is 52 to 58 °C.
Next, `NC(=O)NCCCCC1CCSS1` (stereo unspecified): 110 to 113 °C; `O=C(OCOC(=O)c1ccccc1)Oc1ccc([N+](=O)[O-])cc1`: 69 to 71 °C; `Nc1ncc(CCCCc2ccccc2)c(N)n1`: 126 to 127 °C.
For `NC(=S)N1CCC(c2cccc(C(F)(F)F)c2)=N1` the value was 159 to 161 °C; for `CCn1ncc(OCc2ccc(C3CCCCC3)cc2)c(Cl)c1=O`, 168 to 170 °C.
Next, `CCOC(=O)C(C)Oc1ncn(-c2ccc(Br)cc2)n1` (stereo unspecified): 64 to 66 °C; `O=c1[nH]c2cc(F)c(F)cc2n2ccnc12`: > 300 °C.
With `Cc1cc2c(c(C(=O)c3ccccc3)c1)NCC2`, the melting point was 84 °C.
On to `Cc1nc(Cl)sc1C=O`, for which the melting point fell in the range of 77 to 78 °C.
Next, `C[C@]1(COc2ccc(N3CCN(C(=O)NCc4ccc(OC(F)(F)F)cc4)CC3)cc2)Cn2cc([N+](=O)[O-])nc2O1`: 166 to 168 °C; `CCCOc1ccc(-c2ccc3c(c2)C=C(C(=O)Nc2ccc(CN(C)C4CCOCC4)cc2)CCN3C)cc1`: 149 to 151 °C; `CNc1nc(C(F)(F)F)cc(=O)n1-c1c(Cl)cc(C(F)(F)F)cc1Cl`: 211 to 214 °C.
For `Cc1ccc2noc(-c3ccccc3)c2c1` the value was 64 to 66 °C.
Next, `CN=C1N(C)C(=O)CN1c1ccccc1`: 116 to 118 °C; `COC(=O)c1cnn(C)c1C(=O)Nc1ccn2nc(-c3cccnc3)nc2c1`: 228 to 231 °C; `CCC(C)COc1ccc(-c2ccc(O)cc2)cc1` (stereo unspecified): 80.5 °C.
Take `CS(=O)(=O)c1ccc(-c2cc(-c3c(-c4ccccn4)nc4ccccn34)ccn2)cc1`: the melting point was in the range of 242 to 244 °C.
For `COc1ccc(C(=Cc2cc(OC)c(OC)cc2[N+](=O)[O-])C(=O)N2CCCC2C(=O)O)cc1` (stereo unspecified) the value was 120 to 122 °C; for `N#CC(=NO)C1CCCOC1` (stereo unspecified), 46 to 50 °C.
For `O=C1NC(O)C2CN(Cc3ccccc3)CC12` (stereo unspecified) the value was 138 °C; for `COCc1cnc2c(NC(=O)c3c(Cl)cccc3Cl)cccc2c1CCl`, 164 °C; for `CCC(CC)C(=O)C(C1CCc2ccccc2N1)N1CCN(c2cccc3[nH]ccc23)CC1` (stereo unspecified), 145 to 148 °C.
As to `CN(C)CCc1ccc(OCCCN2C(=O)c3ccccc3C2=O)cc1`, the melting point lay in the range of 81 to 82 °C.
For `CCCCCCCCCCCCCCCCCCCCCCOc1ccc(C(=O)O)cc1` the value was 99 to 102 °C; for `Cc1n[nH]c2cc(F)ccc12`, 116 to 117 °C; for `N=C(CC1=CCC=CC1)N1C[C@@H]2C(=O)CCC(c3ccccc3)(c3ccccc3)[C@@H]2C1` (racemic), 190 °C.
`c1ccc(-c2cc(-c3c[nH]nc3-c3ccccn3)ccn2)cc1` gave a melting point of 148 °C.
Next, `CCCn1nc2c(N)nc3ccccc3c2c1CCNC(=O)Nc1ccc(F)cc1`: 201 to 202 °C; `CCOCc1nc2c(N)nc(C)c(C)c2n1CCCC(=O)N1CCOCC1`: 156 to 158 °C.
Next, `CC(N)=CC(=O)NC1CCCC1`: 138 to 139 °C; `Cc1cc(NC(=O)C(C)(C)C)n(C)n1`: 86 to 88 °C.
For `CCOc1nc(C(F)(F)F)cc(=O)n1-c1cc(OC)c(Br)cc1F` the value was 126 to 128 °C; for `CCc1cccc(C)c1NCc1nccc2c1nc(C)n2C`, 141 to 142 °C; for `CC(C)(O)Cn1cnc2c(N)nc3cc(CCS(C)(=O)=O)ccc3c21`, 269 to 271 °C.
In the case of `CCOCc1nc2cnc3cc(Br)cnc3c2n1CC(C)C`, the melting point lay in the range of 115 to 116 °C.
For `CN=C(NC#N)NCC(O)COc1cccc(CN2CCCCC2)c1` (stereo unspecified) the value was 45 to 47 °C; for `CCOc1ccnc(CSc2nc3ccc(C(F)(F)F)cc3[nH]2)c1C`, 173 to 177 °C; for `O=c1[nH]c2ncc(-c3ccc(O)cc3)nc2n1CC1CCCC1`, 296 to 297 °C.
Next, `O=C(Nc1cccnc1)N1CCN(c2nccc(-c3ccccc3F)n2)CC1`: 200 to 201 °C; `CC(C)(C)OC(=O)N1CCC(COc2ccc(N)cc2)CC1`: 100 to 101 °C.
Regarding `Cc1ccc(-n2nc(Cl)cc2-c2ccc(S(C)(=O)=O)cc2)cc1F`, the melting point was 160 to 162 °C.
Next, `COc1ccc(C(=O)Nc2nc(-c3cccc(C#N)c3)c(-n3cncn3)s2)cc1`: 292 to 294 °C.
For `CCOC(=O)CCc1cccc(N(C)C)c1` the value was 94 to 98 °C; for `COC(=O)c1cc(=O)c(O)co1`, 184 to 186 °C.
For `Cc1[nH]c2ccc(/C=C/C(=O)OCc3ccccc3)cc2c1Cn1ccnc1` the value was 120 to 122 °C.
Compound `O=C1c2cc(Cl)ccc2OCC1n1ccnc1` (stereo unspecified) displayed a melting point of 123 to 125 °C.
On to `C=CCCn1cc(Br)cnc1=O`, for which the melting point lay within 127 to 128 °C.
For the compound `CCN(CC)C(C)(C)CNC1(c2ccccc2Cl)C(=O)Nc2ccc(Cl)cc21` (stereo unspecified), the melting point is 174 °C.
For `CCCC[C@H](NC(=O)[C@H](CCCCNC(=O)OC(C)(C)C)NC(=O)OCc1ccccc1)C(=O)CSCc1ccco1` the value was 60 to 63 °C.
For `O=C(CN1C(=O)CC1SCc1ccccc1)NCCCCCCc1ccccc1` (stereo unspecified) the value was 65 to 70 °C; for `CC(C)(C)OC(=O)NCCCC(COC(=O)Oc1ccc([N+](=O)[O-])cc1)NC(=O)OCC1c2ccccc2-c2ccccc21` (stereo unspecified), 140 to 142 °C.
For `O=C(Nc1ccc(-n2nc(C(F)(F)F)cc2C(F)(F)F)cc1)Nc1ccc(Cl)c([N+](=O)[O-])c1` the value was 207 to 209 °C; for `Cc1ccc(S(=O)(=O)N2CCC[C@H]2C(=O)N[C@@H](CCC(N)=O)C(=O)O)cc1` (Tos-Pro-Gln-OH), 45 to 55 °C.
`N#Cc1cc(C(=O)CC(O)(c2cc(Cl)cc(Cl)c2)C(F)(F)F)ccc1F` (stereo unspecified) displayed a melting point of 146 to 147 °C.
The compound `CN(CCSC(=O)Cc1ccccc1Nc1c(Cl)cccc1Cl)CC1(S)CCCCC1` displayed a melting point of 55 °C.
For `O=C(O)c1cnn2c(C(F)(F)F)cc(-c3ccc(C(F)(F)F)cc3)nc12`, the melting point was 248 °C.
For `O=Cc1ccc(C2CCCc3cncn32)cc1` (stereo unspecified) the value was 131 °C.
Next, `O=C1CCCn2c(=O)[nH]c3cccc1c32`: 235 °C; `CC(C)(O)c1onc(-c2ccccc2Cl)c1C(=O)c1nnn(Cc2cc(C(F)(F)F)cc(C(F)(F)F)c2)c1-c1cccnc1`: 105 °C; `Cn1c2c(c3ccccc31)CCNC2`: > 250 °C.
For `CN(C)C=Nc1nc(Cl)c(N=CN(C)C)c(Cl)n1` the value was 116 to 119 °C.
`NS(=O)(=O)C1CCCCC1=O` (stereo unspecified) registered a melting point of 118 to 119 °C.
For `CC(C)c1c(C(=O)Nc2ccccc2)c(-c2ccc(F)cc2)cn1-c1ccccc1` the value was 192 to 194 °C; for `CS(=O)(=O)Nc1cc(C(=O)c2ccccc2)ccc1N`, 184 to 186 °C.
Next, `Oc1nc2ncnn2c(O)c1-c1c(F)cc(F)cc1F`: 200 to 201 °C.
For `CC(C)(CO)Oc1ccc(CNc2ccc(Cl)cc2)cc1` the value was 84 to 91 °C; for `O=C(N[C@@H](Cc1ccccc1)[C@H](O)CCl)OCc1ccccc1`, 151 to 153 °C; for `CC(=O)NC(C(=O)NC1c2cc(C#N)ccc2OC(C)(C)C1O)c1ccccc1` (stereo unspecified), 133 to 145 °C.
For the compound `CCCc1c(OCCCOc2ccc3c(=O)cc(-c4ccc(C(=O)O)cc4)oc3c2CCC)ccc(C(C)=O)c1O`, the melting point was in the range of 226 to 228 °C.
